The record followed here is ChEMBL document CHEMBL2380296, “Structure-based design and optimization of 2-aminothiazole-4-carboxamide as a new class of CHK1 inhibitors” (Bioorg Med Chem Lett, 2013).

SMILES strings stand for the structures.

The target in assay [1] is T1, Serine/threonine-protein kinase Chk1 (Homo sapiens, UniProt O14757).
T1 sequence (O14757 whole entry): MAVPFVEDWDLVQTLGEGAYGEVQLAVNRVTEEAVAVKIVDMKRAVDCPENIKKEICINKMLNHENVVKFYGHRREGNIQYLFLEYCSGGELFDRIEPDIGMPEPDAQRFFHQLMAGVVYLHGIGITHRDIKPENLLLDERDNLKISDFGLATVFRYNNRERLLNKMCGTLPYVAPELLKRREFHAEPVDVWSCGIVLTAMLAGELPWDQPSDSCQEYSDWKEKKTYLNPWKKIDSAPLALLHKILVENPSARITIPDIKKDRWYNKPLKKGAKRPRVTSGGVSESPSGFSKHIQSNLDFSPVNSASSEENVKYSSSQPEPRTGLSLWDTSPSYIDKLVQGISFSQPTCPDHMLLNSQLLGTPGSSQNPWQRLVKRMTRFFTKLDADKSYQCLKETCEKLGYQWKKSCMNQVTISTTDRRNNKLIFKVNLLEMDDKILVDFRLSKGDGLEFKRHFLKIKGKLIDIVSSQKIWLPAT

Assay [2] concerns the target T1, Serine/threonine-protein kinase Chk1. Description: Inhibition of CHK1 in human U2OS cells assessed as phosphorylation of H2AX after 2 hrs by FITC/propidium iodide staining-based immunofluorescence assay in presence of hydroxyurea. It counts as cell-based.

A word on the IC50: it is the concentration that gives 50% inhibition. Lower therefore signals greater potency in that assay. `O=C(Nc1ccncc1N1CCNCC1)c1csc(-c2ccc3c(c2)CCO3)n1` displayed a half-inhibitory concentration (IC50) in assay [1] of 0.23 µM.
As to `CN(Cc1ccccc1)c1nc(C(=O)Nc2ccccc2N2CCNCC2)cs1`, in assay [1], the IC50 is more than 50 µM.
Still for that read-out and setting: under `Cc1ncc2c(n1)CN(c1nc(C(=O)Nc3ccccc3N3CCNCC3)cs1)C2` stands 5.7 µM; under `O=C(Nc1cnccc1N1CCNCC1)c1csc(-c2ccc(Oc3ccccc3)cc2)n1`, 0.43 µM; under `COc1cc2c(cc1OC)CN(c1nc(C(=O)Nc3ccccc3N3CCNCC3)cs1)CC2`, 0.029 µM.
Consider `O=C(Nc1ccccc1N1CCNCC1)c1csc(N2CCc3sccc3C2)n1`, for which the IC50 in assay [1] is 0.039 µM.
Consider `O=C(Nc1ccccc1N1CCNCC1)c1csc(N2CCc3[nH]cnc3C2)n1`, for which the IC50 in assay [1] worked out at 4 µM.
On the same count and under the same terms, as for `COc1ccc2c(c1)C(=O)N(c1nc(C(=O)Nc3cnc4ccccc4c3N3CCNCC3)cs1)C2`, the figure is 5.2 µM; as for `Cn1nc(-c2ccccc2)cc1Nc1nc(C(=O)Nc2ccccc2N2CCNCC2)cs1`, 4.5 µM; as for `O=C(Nc1ccccc1N1CCNCC1)c1csc(-n2nnc3ccccc32)n1`, 0.11 µM.
In general, EC50 refers to the concentration needed to bring the measured effect to its halfway point. As for `COc1ccc2c(c1)C(=O)N(c1nc(C(=O)Nc3cc(F)ccc3N3CCNCC3)cs1)C2`, the EC50 in assay [2] is 6 µM. The compound further registered an IC50 in assay [1] of 0.004 µM.
In assay [1], `O=C(Nc1ccccc1N1CCNCC1)c1csc(NCc2ccccc2)n1` came in with an IC50 of 11 µM.
`CN(c1ccccc1)c1nc(C(=O)Nc2ccccc2N2CCNCC2)cs1` showed a 50% inhibitory concentration (IC50) in assay [1] of 0.24 µM.
For `O=C(Nc1cnccc1N1CCNCC1)c1csc(-n2ncc3ccccc32)n1`, the EC50 in assay [2] was 0.075 µM. The same compound showed an IC50 in assay [1] of 0.003 µM.
For `O=C(Nc1cnccc1N1CCNCC1)c1csc(N2Cc3ccccc3C2=O)n1`, in assay [2], the concentration giving a half-maximal response (EC50) was found to be 0.1 µM. Further, the concentration for half-maximal inhibition (IC50) in assay [1] stood at 0.002 µM.
With `O=C(Nc1ccccc1N1CCNCC1)c1csc(NC2Cc3ccccc3C2)n1`, it took 6.9 µM to reach half-maximal inhibition in assay [1] (IC50).
For `O=C(Nc1ccccc1N1CCNCC1)c1csc(N2Cc3ccccc3C2)n1`, the EC50 in assay [2] is 1.4 µM. The compound also yielded an IC50 in assay [1] of 0.008 µM.
Compound `O=C(Nc1cccnc1N1CCNCC1)c1csc(-c2ccc3c(c2)CCO3)n1` had an IC50 in assay [1] of 0.87 µM.
For the compound `O=C(Nc1ccccc1N1CCNCC1)c1csc(-n2ncc3ccccc32)n1`, the EC50 in assay [2] is 0.75 µM. The compound also returned an IC50 in assay [1] of 0.002 µM.
As to `COc1ccc(-c2cc(N)n(-c3nc(C(=O)Nc4ccccc4N4CCNCC4)cs3)n2)cc1`, in assay [1], the IC50 amounted to 0.98 µM.
The compound `COc1ccc2c(c1)C(=O)N(c1nc(C(=O)Nc3cncnc3N3CCNCC3)cs1)C2` showed an IC50 in assay [1] of 0.046 µM.
Take `O=C(Nc1cnccc1N1CCNCC1)c1csc(-c2ccc3sccc3c2)n1`: the EC50 in assay [2] was 1.25 µM. In assay [1], the IC50 turned out to be 0.007 µM.
In the case of `COc1ccc2c(c1)C(=O)N(c1nc(C(=O)Nc3cnc(C)cc3N3CCNCC3)cs1)C2`, in assay [2], the EC50 came to 1 µM. This compound registered an IC50 in assay [1] of 0.01 µM.
Turning to `O=C(Nc1cnccc1N1CCNCC1)c1csc(-c2ccc3c(c2)CCO3)n1`, the IC50 in assay [1] turned out to be 0.055 µM.
As for `O=C(Nc1cnccc1N1CCNCC1)c1csc(N2Cc3ccccc3C2)n1`, the concentration giving a half-maximal response (EC50) in assay [2] worked out at 0.9 µM. Besides, half-maximal inhibition in assay [1] (IC50) was put at 0.008 µM.
The matching figures for `O=C(Nc1ccccc1N1CCNCC1)c1csc(Nc2cc(-c3ccccc3)n[nH]2)n1`: 7.5 µM and 0.014 µM.
The corresponding values for `O=C(Nc1cnccc1N1CCNCC1)c1csc(-c2cc3ccccc3s2)n1` are 1 µM and 0.003 µM.
Turning to `O=C(Nc1ccccc1N1CCNCC1)c1csc(N2Cc3ccncc3C2)n1`, 0.19 µM corresponded to half-maximal inhibition in assay [1] (IC50).
Consider `Cc1nc2c(s1)CN(c1nc(C(=O)Nc3ccccc3N3CCNCC3)cs1)C2`, for which the IC50 in assay [1] was found to be 0.28 µM.
Still for that read-out and setting: under `O=C(Nc1cnccc1N1CCNCC1)c1csc(-c2ccc3occc3c2)n1` stands 0.028 µM.
Turning to `COc1ccc2c(c1)C(=O)N(c1nc(C(=O)Nc3ccccc3N3CCNCC3)cs1)C2`, the EC50 in assay [2] was 0.25 µM. In assay [1], this compound registered a half-inhibitory concentration (IC50) of 0.005 µM.
Take `O=C(Nc1ccccc1N1CCNCC1)c1csc(N2CCc3c(F)ccc(F)c3C2)n1`: the IC50 in assay [1] was determined as 1.3 µM.
Same read-out and setting: as for `COc1ccc2c(c1)C(=O)N(c1nc(C(=O)Nc3ccnnc3N3CCNCC3)cs1)C2`, the figure is 0.281 µM.
Still for that read-out and setting: as for `O=C(Nc1ccccc1N1CCNCC1)c1csc(-n2cccn2)n1`, the figure is 0.12 µM.
The same measure, in the same setting: under `O=C(Nc1ccccc1N1CCNCC1)c1csc(-n2ccnc2)n1` stands 10 µM.
In turn, `O=C(Nc1ccccc1N1CCNCC1)c1csc(N2Cc3cn[nH]c3C2)n1` had an IC50 in assay [1] of 0.062 µM.
`O=C(Nc1cnccc1N1CCNCC1)c1csc(-c2ccc3[nH]ccc3c2)n1`: in assay [2], the concentration for a half-maximal effect (EC50) was 1 µM. In assay [1], this compound showed an IC50 of 0.01 µM.
With `COc1ccc(-c2cc(Nc3nc(C(=O)Nc4ccccc4N4CCNCC4)cs3)[nH]n2)cc1`, the EC50 in assay [2] came out at 3.75 µM. The compound also yielded an IC50 in assay [1] of 0.003 µM.
In the case of `O=C(Nc1ccccc1N1CCNCC1)c1csc(N2CCCc3ccccc32)n1`, the IC50 in assay [1] is 0.038 µM.
Regarding `O=C(Nc1ccccc1N1CCNCC1)c1csc(Nc2n[nH]c3ccccc23)n1`, the EC50 in assay [2] worked out at 0.35 µM. The compound further displayed an IC50 in assay [1] of 0.002 µM.
As to `O=C(Nc1ncccc1N1CCNCC1)c1csc(-c2ccc3c(c2)CCO3)n1`, the IC50 in assay [1] was 4.7 µM.
As to `O=C(Nc1cnccc1N1CCNCC1)c1csc(Nc2n[nH]c3ccccc23)n1`, the EC50 in assay [2] is 0.04 µM. In assay [1], this compound gave an IC50 of 0.003 µM.
For `O=C(Nc1ccccc1N1CCNCC1)c1csc(Nc2ccccc2)n1`, in assay [1], it took 0.092 µM to reach half-maximal inhibition (IC50).
`O=C(Nc1ccccc1N1CCNCC1)c1csc(N2CCc3ccccc3C2)n1` came in with an IC50 in assay [1] of 0.038 µM.
